Measurements as given in PubChem BioAssay (NCI).
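Results reflect a 48-hour exposure of cells in 96-well plates to compound at five concentrations. TGI denotes the concentration required for complete inhibition of growth.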

Key:
Experiment in all cases: DTP human tumour cell line panel, 48 h
OVCAR-5 ovarian = tested on: OVCAR-5 ovarian
COLO 205 colon = tested on: COLO 205 colon
NCI-H522 lung = tested on: NCI-H522 lung
UACC-62 melanoma = tested on: UACC-62 melanoma
NCI-H460 lung = tested on: NCI-H460 lung
LOX IMVI melanoma = tested on: LOX IMVI melanoma
786-0 renal = tested on: 786-0 renal
EKVX NSCLC = tested on: EKVX NSCLC
RXF 393 renal = tested on: RXF 393 renal
NCI-H23 lung = tested on: NCI-H23 lung
CCRF-CEM leukemia = tested on: CCRF-CEM leukemia
MDA-N = tested on: MDA-N

## O=C(OC1=CCN(Br)C1=O)C1=C(O)C(=O)N(Br)C1
OVCAR-5 ovarian
  TGI: 52.8 µM
COLO 205 colon
  TGI: 54.4 µM
NCI-H522 lung
  TGI: 31.4 µM
UACC-62 melanoma
  TGI: 36.3 µM
NCI-H460 lung
  TGI: > 100 µM
LOX IMVI melanoma
  TGI: 54 µM
786-0 renal
  TGI: 30.4 µM
EKVX NSCLC
  TGI: 77.8 µM
RXF 393 renal
  TGI: 38.5 µM
NCI-H23 lung
  TGI: > 100 µM
CCRF-CEM leukemia
  TGI: > 100 µM

## CCCCCCN(CCCCCC)CCC(=O)c1ccc2cc(Br)c3ccccc3c2c1
OVCAR-5 ovarian
  TGI: > 100 µM
COLO 205 colon
  TGI: 80.4 µM
NCI-H522 lung
  TGI: 87.1 µM
UACC-62 melanoma
  TGI: 74.5 µM
NCI-H460 lung
  TGI: > 100 µM
LOX IMVI melanoma
  TGI: 98.3 µM
786-0 renal
  TGI: > 100 µM
EKVX NSCLC
  TGI: > 100 µM
RXF 393 renal
  TGI: 64.3 µM
NCI-H23 lung
  TGI: > 100 µM

## ClCc1nc2ccccc2[nH]1
OVCAR-5 ovarian
  TGI: > 100 µM
COLO 205 colon
  TGI: > 100 µM
NCI-H522 lung
  TGI: > 100 µM
UACC-62 melanoma
  TGI: > 100 µM
NCI-H460 lung
  TGI: > 100 µM
LOX IMVI melanoma
  TGI: > 100 µM
786-0 renal
  TGI: > 100 µM
EKVX NSCLC
  TGI: > 100 µM
RXF 393 renal
  TGI: > 100 µM
NCI-H23 lung
  TGI: > 100 µM
CCRF-CEM leukemia
  TGI: > 100 µM

## C=C(/C=C/C=C(\C)CCC=C(C)C)[C@@H]1CC[C@]2([C@H](CCCO)/C(=C(/C)C=O)CC[C@]2(C)O)[C@@H]1O
OVCAR-5 ovarian
  TGI: > 100 µM
COLO 205 colon
  TGI: 26 µM
NCI-H522 lung
  TGI: 33 µM
NCI-H460 lung
  TGI: 26.5 µM
LOX IMVI melanoma
  TGI: 31.9 µM
EKVX NSCLC
  TGI: 44.1 µM
RXF 393 renal
  TGI: 37.8 µM
NCI-H23 lung
  TGI: 45.7 µM
CCRF-CEM leukemia
  TGI: 48.8 µM

## CC(C)(C)c1ccc2c(c1)OP1(Oc3c(Cl)cc(Cl)c4cccnc34)(O2)Oc2ccc(C(C)(C)C)cc2O1
OVCAR-5 ovarian
  TGI: 27.5 µM
COLO 205 colon
  TGI: 31.3 µM
NCI-H522 lung
  TGI: 8.45 µM
UACC-62 melanoma
  TGI: 21.1 µM
NCI-H460 lung
  TGI: 16.2 µM
LOX IMVI melanoma
  TGI: 19.2 µM
EKVX NSCLC
  TGI: > 35.7 µM
RXF 393 renal
  TGI: 30 µM
NCI-H23 lung
  TGI: 21.8 µM
CCRF-CEM leukemia
  TGI: > 100 µM

## S=P1(Sc2ccccc2)Oc2ccc3ccccc3c2-c2c(ccc3ccccc23)O1
OVCAR-5 ovarian
  TGI: > 100 µM
COLO 205 colon
  TGI: > 100 µM
NCI-H522 lung
  TGI: > 100 µM
UACC-62 melanoma
  TGI: > 100 µM
NCI-H460 lung
  TGI: > 100 µM
LOX IMVI melanoma
  TGI: > 100 µM
EKVX NSCLC
  TGI: > 100 µM
RXF 393 renal
  TGI: > 100 µM
NCI-H23 lung
  TGI: > 100 µM
CCRF-CEM leukemia
  TGI: > 100 µM

## O=C1c2ccccc2N(O)C1(c1ccccc1)C1CCCC=C1N1CCOCC1 (stereo not given)
OVCAR-5 ovarian
  TGI: > 100 µM
COLO 205 colon
  TGI: > 100 µM
NCI-H522 lung
  TGI: 73 µM
UACC-62 melanoma
  TGI: > 100 µM
NCI-H460 lung
  TGI: > 100 µM
LOX IMVI melanoma
  TGI: > 100 µM
EKVX NSCLC
  TGI: > 100 µM
RXF 393 renal
  TGI: > 100 µM
NCI-H23 lung
  TGI: > 100 µM
CCRF-CEM leukemia
  TGI: > 100 µM

## c1ccc2c3c(ccc2c1)-c1[nH]ncc1CCO3
OVCAR-5 ovarian
  TGI: > 86.2 µM
COLO 205 colon
  TGI: 99.7 µM
NCI-H522 lung
  TGI: > 81.5 µM
UACC-62 melanoma
  TGI: > 62.9 µM
NCI-H460 lung
  TGI: > 88 µM
LOX IMVI melanoma
  TGI: > 93.6 µM
EKVX NSCLC
  TGI: 45 µM
RXF 393 renal
  TGI: > 74.2 µM
NCI-H23 lung
  TGI: 75.7 µM
CCRF-CEM leukemia
  TGI: > 100 µM

## CN1CCC2(CC1)SSC1(CCN(C)CC1)S2
OVCAR-5 ovarian
  TGI: > 100 µM
COLO 205 colon
  TGI: > 100 µM
UACC-62 melanoma
  TGI: > 100 µM
NCI-H460 lung
  TGI: > 100 µM
LOX IMVI melanoma
  TGI: > 100 µM
786-0 renal
  TGI: > 100 µM
NCI-H23 lung
  TGI: > 100 µM
CCRF-CEM leukemia
  TGI: > 100 µM
MDA-N
  TGI: > 100 µM

## O=C1C(Cl)=C(Cl)C(=O)C(CCNc2nccs2)=C1Cl
OVCAR-5 ovarian
  TGI: > 100 µM
COLO 205 colon
  TGI: > 100 µM
NCI-H522 lung
  TGI: 51.3 µM
UACC-62 melanoma
  TGI: 63.6 µM
NCI-H460 lung
  TGI: > 100 µM
786-0 renal
  TGI: 45 µM
EKVX NSCLC
  TGI: 60.4 µM
RXF 393 renal
  TGI: 46.2 µM
NCI-H23 lung
  TGI: 59.3 µM
CCRF-CEM leukemia
  TGI: > 100 µM

## NC1=Nc2ccccc2Sc2nncn21
OVCAR-5 ovarian
  TGI: > 100 µM
COLO 205 colon
  TGI: > 100 µM
NCI-H522 lung
  TGI: > 100 µM
UACC-62 melanoma
  TGI: > 100 µM
NCI-H460 lung
  TGI: > 100 µM
LOX IMVI melanoma
  TGI: > 100 µM
786-0 renal
  TGI: > 100 µM
EKVX NSCLC
  TGI: > 100 µM
RXF 393 renal
  TGI: > 100 µM
NCI-H23 lung
  TGI: > 100 µM
CCRF-CEM leukemia
  TGI: > 100 µM

## COC(=O)c1ccc(NCc2cc(OC)ccc2OC)cc1
OVCAR-5 ovarian
  TGI: > 100 µM
COLO 205 colon
  TGI: > 100 µM
NCI-H522 lung
  TGI: > 100 µM
UACC-62 melanoma
  TGI: > 100 µM
LOX IMVI melanoma
  TGI: > 100 µM
786-0 renal
  TGI: > 100 µM
EKVX NSCLC
  TGI: > 100 µM
NCI-H23 lung
  TGI: > 100 µM
CCRF-CEM leukemia
  TGI: > 100 µM
MDA-N
  TGI: > 100 µM

## COc1ccc(C2SCC(=O)N2c2ccc(-n3c(-c4ccccc4)nc4ccccc4c3=O)cc2)cc1 (stereo not given)
OVCAR-5 ovarian
  TGI: > 100 µM
COLO 205 colon
  TGI: > 100 µM
NCI-H522 lung
  TGI: > 100 µM
UACC-62 melanoma
  TGI: > 100 µM
NCI-H460 lung
  TGI: > 100 µM
LOX IMVI melanoma
  TGI: > 100 µM
786-0 renal
  TGI: > 100 µM
EKVX NSCLC
  TGI: > 100 µM
NCI-H23 lung
  TGI: > 100 µM
CCRF-CEM leukemia
  TGI: > 100 µM

## OC1NC2Nc3ccccc3NC2NC1O (stereo not given)
OVCAR-5 ovarian
  TGI: > 100 µM
COLO 205 colon
  TGI: > 100 µM
NCI-H522 lung
  TGI: > 100 µM
UACC-62 melanoma
  TGI: > 100 µM
NCI-H460 lung
  TGI: > 100 µM
LOX IMVI melanoma
  TGI: > 100 µM
786-0 renal
  TGI: > 100 µM
EKVX NSCLC
  TGI: > 100 µM
RXF 393 renal
  TGI: > 100 µM
NCI-H23 lung
  TGI: > 100 µM
CCRF-CEM leukemia
  TGI: > 100 µM

## COC(=O)C1=CO[C@@H](C)[C@@H]2Cn3ccc4c5ccccc5nc-4c3C[C@H]12
OVCAR-5 ovarian
  TGI: > 100 µM
COLO 205 colon
  TGI: > 100 µM
NCI-H522 lung
  TGI: > 100 µM
UACC-62 melanoma
  TGI: > 100 µM
NCI-H460 lung
  TGI: > 100 µM
LOX IMVI melanoma
  TGI: > 100 µM
786-0 renal
  TGI: > 100 µM
EKVX NSCLC
  TGI: > 100 µM
RXF 393 renal
  TGI: > 100 µM
NCI-H23 lung
  TGI: > 100 µM
CCRF-CEM leukemia
  TGI: > 100 µM

## Nn1c(CCCCCCCCc2nnc(-c3c(O)ccc4ccccc34)n2N)nnc1-c1c(O)ccc2ccccc12
OVCAR-5 ovarian
  TGI: > 100 µM
COLO 205 colon
  TGI: > 100 µM
NCI-H522 lung
  TGI: > 100 µM
UACC-62 melanoma
  TGI: > 100 µM
NCI-H460 lung
  TGI: > 100 µM
LOX IMVI melanoma
  TGI: > 100 µM
786-0 renal
  TGI: > 100 µM
NCI-H23 lung
  TGI: > 100 µM
MDA-N
  TGI: > 100 µM

## O=[N+]([O-])c1ccc(-c2csc(N=Nc3c(O)[nH]c4ccccc34)n2)cc1
OVCAR-5 ovarian
  TGI: 45.4 µM
COLO 205 colon
  TGI: > 100 µM
NCI-H460 lung
  TGI: 22.9 µM
LOX IMVI melanoma
  TGI: > 100 µM
786-0 renal
  TGI: > 100 µM
EKVX NSCLC
  TGI: > 100 µM
NCI-H23 lung
  TGI: > 100 µM
MDA-N
  TGI: > 100 µM
